Patent US20220274947A1, “NOVEL HETEROARYL-TRIAZOLE COMPOUNDS AS PESTICIDES” (Bayer Aktiengesellschaft, priority 2019, published 2022)

Legend:
Type in all cases: in vivo
Rhipicephalus microplus [1] = experiment: Rhipicephalus (Boophilus) microplus injection test (BOOPMI Inj); conditions: 168 h, injection into adult engorged female ticks, egg deposition after 7 days, read-out: activity (efficacy: 100% means all eggs are infertile); for pest or weed control at 0.004 mg: application rate 4 μg/tick; for pest or weed control at 0.02 mg: application rate 20 μg/tick
Summary of the method: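 Five engorged adult female R. microplus ticks injected into the abdomen with 1 μL of compound diluted in DMSO, then kept in a climate chamber. Fertile egg deposition checked after 7 days; eggs without visible fertility held until hatching at about 42 days. Efficacy: 100% = all eggs infertile, 0% = all fertile.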

Rhipicephalus microplus [2] = experiment: Rhipicephalus (Boophilus) microplus in-vitro contact test, larval cattle tick, strain Parkhurst (BOOPMI Cont); conditions: application rate 5 μg/cm^2 (=500 g/ha), tick larvae, after 48 hours, read-out: activity (efficacy: 100% means all larvae are dead or moribund)
Summary of the method: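 Acetone solutions dried onto glass tube walls (900 ppm giving 5 μg/cm^2); 20-50 pyrethroid-resistant Parkhurst larvae added per tube and held 48 h at 27° C., 85% relative humidity. Efficacy scored by negative geotaxis as % dead or moribund larvae.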

Ctenocephalides felis [3] = experiment: Ctenocephalides felis oral test (CTECFE Oral); conditions: 48 h, read-out: activity (mortality)
Protocol: Ctenocephalides felis—Oral Test (CTECFE Oral) Solvent: dimethyl sulfoxide
To produce a suitable preparation of active compound, 10 mg of active compound are dissolved in 0.5 mL solvent, and the concentrate is diluted with cattle blood to the desired concentration.
Approximately 20 adult unfed cat fleas (Ctenocephalides felis) are placed in flea chambers. The blood chamber, sealed with parafilm on the bottom, are filled with cattle blood supplied with compound solution and placed on the gauze covered top of the flea chamber, so that the fleas are able to suck the blood. The blood chamber is heated to 37° C. whereas the flea chamber is kept at room temperature.
After 2 days mortality in % is determined. 100% means all the fleas have been killed; 0% means none of the fleas have been killed.

Diabrotica balteata = Diabrotica balteata spray test; conditions: 168 h, wheat seeds, larvae, after 7 days, read-out: activity (efficacy: 100% means all seedlings have grown up like in the untreated, uninfected control); for pest or weed control at 32 µg/disc, 100 g/ha: application rate 100 g/ha (=32 μg/well); for pest or weed control at 160 µg/disc, 500 g/ha: application rate 500 g/ha (=160 μg/well)
Summary of the method: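 Wheat seedlings, germinated 1 day on agar, were sprayed with compound in acetone/DMF diluted in water containing emulsifier, then infested with 10-20 Diabrotica balteata larvae. After 7 days efficacy in % was scored: 100% means seedlings grew like the untreated, uninfected control; 0% means none grew.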

Myzus persicae = Myzus persicae oral test; conditions: 120 h, read-out: activity (mortality)
Protocol: Myzus persicae—Oral Test Solvent: 100 parts by weight acetone
To produce a suitable preparation of active compound, 1 part by weight of active compound is mixed with the stated amount of solvent, and the concentrate is diluted with water to the desired concentration.
50 μL compound solution is filled in microtiter plates and 150 μL IPL41 insect medium (33%+15% sugar) is added to obtain a total volume of 200 μL per well. Afterwards the plates are sealed with parafilm through which a mixed population of the green peach aphid (Myzus persicae) can suck on the compound preparation.
After 5 days mortality in % is determined. 100% means all aphids have been killed and 0% means none of the aphids have been killed.

Spodoptera frugiperda = Spodoptera frugiperda spray test; conditions: in Zea mays, 168 h, read-out: activity (mortality)
Summary of the method: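 Maize leaf sections were sprayed with compound formulated in acetone/DMF and diluted in water containing 1000 ppm emulsifier. Dried leaves were infested with fall armyworm larvae, and percent mortality was scored after 7 days.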

[4] = test system: Aedes aegypti strain MONHEIM; experiment: Aedes aegypti test (AEDSAE surface treatment & contact assay); conditions: exposure 30 minutes, 24 hours after contact, read-out: efficacy (mortality); for mortality at 4 mg/m2: surface concentration 4 mg/m^2, glazed tile; for mortality at 20 mg/m2: surface concentration 20 mg/m^2, glazed tile
Protocol: Aedes aegypti Test (AEDSAE Surface Treatment & Contact Assay) Solvent: Aceton+2000 ppm rapeseed oil methyl ester (RME)
(§1) In order to produce a sufficient, active ingredient containing solution it is necessary to solve the test compound in the solvent-mix (acetone at 2 mg/ml/RME 2000 ppm). This solution is pipetted onto a glazed tile and after evaporation of the acetone, adult mosquitoes of the species Aedes aegypti strain MONHEIM are placed onto the dried surface. The exposure time is 30 minutes. Mortality in percent (%) is determined 24 hours after contact of the insects to the treated surface. 100% mortality means that all tested insects are dead, whereas 0% means that no insect died.

[5] = test system: Musca domestica strain WHO—N; experiment: Musca domestica test (MUSCDO surface treatment & contact assay); conditions: exposure 30 minutes, 24 hours after contact, read-out: efficacy (mortality); for mortality at 20 mg/m2: surface concentration 20 mg/m^2, glazed tile; for mortality at 4 mg/m2: surface concentration 4 mg/m^2, glazed tile
Protocol: Musca domestica Test (MUSCDO Surface Treatment & Contact Assay) Solvent: Aceton+2000 ppm rapeseed oil methyl ester (RME)
as §1, with “flies” for “mosquitoes”, “Musca domestica” for “Aedes aegypti”, “WHO—N” for “MONHEIM”

Ctenocephalides felis [6] = experiment: Ctenocephalides felis in-vitro contact test, adult cat flea (CTECFE Cont); conditions: application rate 5 μg/cm^2 (=500 g/ha), adult cat fleas, after 48 hours, read-out: activity (efficacy: 100% means all fleas are dead or moribund)
Protocol: Ctenocephalides felis—In-Vitro Contact Tests Adult Cat Flea (CTECFE Cont)
9 mg compound is solved in 1 mL acetone and diluted with acetone to the desired concentration. 250 μL of the test solution is filled in 25 mL glass test tubes and homogeneously distributed on the inner walls by rotation and tilting on a shaking device (2 h at 30 rpm). With a compound concentration of 900 ppm, an inner surface of 44.7 cm^2 and a homogeneous distribution, a dose of 5 μg/cm^2 is achieved.
After the solvent has evaporated, each test tube is filled with 5-10 adult cat fleas (Ctenocephalides felis), closed with a perforated lid and incubated in a lying position at room temperature and relative humidity. After 48 hours efficacy is determined. The fleas are patted on the ground of the tubes and are incubated on a heating plate at 45-50° C. for at most 5 minutes. Immotile or uncoordinated moving fleas, which are not able to escape the heat by climbing upwards, are marked as dead or moribund.
An efficacy of 100% means all fleas are dead or moribund; 0% means no fleas are dead or moribund.

Rhipicephalus sanguineus = Rhipicephalus sanguineus in-vitro contact test, adult brown dog ticks (RHIPSA Cont); conditions: 48 h, after 48 hours, read-out: activity (efficacy: 100% means all ticks are dead or moribund); for pest or weed control at 1 µg/cm2, 100 g/ha: application rate 1 μg/cm^2 (=100 g/ha); for pest or weed control at 5 µg/cm2, 500 g/ha: application rate 5 μg/cm^2 (=500 g/ha)
Summary of the method: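 Compound in acetone was coated onto the inner walls of glass tubes and dried by rotation before adult brown dog ticks were exposed. Efficacy was scored at 48 h. Ticks unable to climb away from a 45–50 °C heating plate within 5 min counted as dead or moribund.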

| SMILES | pest or weed control at 0.004 mg (Rhipicephalus microplus [1]) [%] | pest or weed control at 0.02 mg (Rhipicephalus microplus [1]) [%] | pest or weed control at 5 µg/cm2 (Rhipicephalus microplus [2]) [%] | mortality at 100 ppm (Ctenocephalides felis [3]) [%] | pest or weed control at 32 µg/disc, 100 g/ha (Diabrotica balteata) [%] | pest or weed control at 160 µg/disc, 500 g/ha (Diabrotica balteata) [%] | mortality at 4 ppm (Myzus persicae) [%] | mortality at 100 g/ha (Spodoptera frugiperda) [%] | mortality at 4 mg/m2 [4] [%] | mortality at 20 mg/m2 [4] [%] | mortality at 20 mg/m2 [5] [%] | pest or weed control at 5 µg/cm2 (Ctenocephalides felis [6]) [%] | mortality at 500 g/ha (Spodoptera frugiperda) [%] | mortality at 4 mg/m2 [5] [%] | pest or weed control at 1 µg/cm2, 100 g/ha (Rhipicephalus sanguineus) [%] | pest or weed control at 5 µg/cm2, 500 g/ha (Rhipicephalus sanguineus) [%] | mortality at 0.8 ppm (Myzus persicae) [%] |
| --- | --- | --- | --- | --- | --- | --- | --- | --- | --- | --- | --- | --- | --- | --- | --- | --- | --- |
| CC(NC(=O)c1cc(Cl)cc(C(F)(F)F)c1)c1nc(C(F)F)nn1-c1ccc(C#N)cn1 (racemic) [I-9] | 100 | 100 | 100 | 100 | 100 | 100 | 100 | 100 | 80 to 100 | 80 to 100 | 80 to 100 |  |  |  |  |  |  |
| CCc1nc([C@H](C)NC(=O)c2cc(Cl)cc(C(F)(F)F)c2)n(-c2ccc(C#N)cn2)n1 [I-3] | 100 | 100 | 100 |  | 100 | 100 | 90 | 100 | 80 to 100 | 80 to 100 | 80 to 100 | 100 | 100 | 80 to 100 |  |  |  |
| CC(C)c1nc([C@H](C)NC(=O)c2cc(Br)cc(C(F)(F)F)n2)n(-c2ccc(C#N)cn2)n1 [I-20] |  |  |  |  |  |  |  |  |  |  |  | 80 |  |  |  |  |  |
| CC(C)c1nc([C@H](C)NC(=O)c2cc(Br)cc(Br)c2)n(-c2ccc(C#N)cn2)n1 [I-24] | 100 | 100 | 100 | 100 | 100 |  |  | 100 |  |  |  | 80 |  |  | 100 | 100 |  |
| C[C@H](NC(=O)c1cc(C#N)cc(C(F)(F)F)c1)c1nc(C2CC2)nn1-c1ccc(C#N)cn1 [I-44] | 100 |  | 100 | 100 | 100 |  |  | 100 | 80 to 100 | 80 to 100 | 80 to 100 |  |  | 80 to 100 |  |  | 90 |
| COc1nc([C@H](C)NC(=O)c2cc(Br)cc(Br)c2)n(-c2ccc(C#N)cn2)n1 [I-61] | 100 |  | 100 |  | 100 |  | 100 | 100 |  |  |  | 80 |  |  | 100 | 100 |  |
| CC(C)N(C(=O)c1ccc(-n2ncnc2[C@H](C)NC(=O)c2cc(Cl)cc(C(F)(F)F)c2)nc1)C1CC1 [II-29] | 100 | 100 | 100 | 100 | 100 | 100 |  | 83 | 80 to 100 | 80 to 100 |  | 100 | 100 |  | 100 | 100 |  |
| C[C@H](NC(=O)c1cc(Cl)cc(OC(F)(F)F)c1)c1ncnn1-c1cc(C#N)ccn1 [II-33] | 100 | 100 | 100 |  | 100 | 100 | 100 | 100 | 80 to 100 | 80 to 100 | 80 to 100 | 90 | 100 | 80 to 100 | 80 | 80 |  |
| CCN(CC)C(=O)c1ccnc(-n2ncnc2[C@H](C)NC(=O)c2cc(C(F)(F)F)cc(C(F)(F)F)c2)c1 [II-85] |  |  | 100 |  | 100 |  | 100 | 83 |  |  |  | 100 |  |  | 100 | 100 |  |
| C[C@H](NC(=O)c1cc(C(F)(F)F)cc(C(F)(F)F)c1)c1ncnn1-c1cc(C(=O)N(C)CC(F)(F)F)ccn1 [II-88] |  |  | 100 |  | 100 |  | 100 | 100 |  |  |  | 100 |  |  |  |  |  |
| CC(C)CNC(=O)c1ccnc(-n2ncnc2[C@H](C)NC(=O)c2cc(C(F)(F)F)cc(C(F)(F)F)c2)c1 [II-90] |  |  | 100 |  |  |  | 100 | 83 |  |  |  | 80 |  |  |  |  |  |
| C[C@H](NC(=O)c1cc(Cl)cc(C(F)(F)F)c1)c1ncnn1-c1cc(-n2ccnc2)ccn1 [II-102] | 100 |  | 90 | 100 |  |  |  |  |  |  |  | 80 |  |  |  |  |  |
| C[C@H](NC(=O)c1cc(Br)cc(I)c1)c1ncnn1-c1ccc(C#N)cn1 [II-112] | 100 |  | 100 | 100 | 100 |  |  | 100 |  |  |  | 80 |  |  | 100 | 100 |  |
